Test results from patent US4068070A, “α-Cyanoamine compounds and a process for producing the same” (Fuji Chemical Industry Co., Ltd., priority 1974, dated 1978).

Columns and labels:
Type in all cases: in vivo, mongrel adult dogs
[1] = test system: coronary sinus oxygen tension; experiment: Effects on coronary sinus oxygen tension
Experimental: (§1) All experiments were made on male and female thoractomized mongrel adult dogs weighing about 10 kg. under anesthesia with pentobarbital sodium. Compounds A, D, E and F were suspended in 0.2% CMC solution, Compound B dissolved in hydrochloric acid solution (pH 6), and Compound C and active placebo being dissolved in physiological saline solution. Animals were administered the drug intravenously on brachiuma with either test compound or active placebo.
(§2) Arterial blood pressure was measured by pressure transducer (Nippon Koden MPU-0.5) connected with the cannula inserted from exposed carotid artery into aorta. Aortic blood flow was determined by means of electromagnetic flow meter (Nippon Koden MF-5) mounted at the origin of the aorta. Coronary sinus out flow and coronary sinus oxygen tension were assessed by means of electromagnetic flow meter (Nippon Koden MF-5) and P02 macro electrode (Beokmann Moder 160-C), respectively using Morawitz cannulization technique. Heart rate was measured by cardiotachometer (Nippon Koden RT-2) synchronized with systolic blood pressure of aorta.

coronary sinus out flow = experiment: Effects on coronary sinus out flow
Experimental: as §1, §2

[2] = test system: arterial mean blood pressure; experiment: Effects on arterial mean blood pressure
Experimental: as §1, §2

heart rate = experiment: Effects on heart rate
Experimental: as §1, §2

aortic blood flow = experiment: Effects on aortic blood flow
Experimental: as §1, §2

CCOC(=O)N1CCN(C(C#N)c2ccc(OC)c(OC)c2)CC1 (centres unmarked) [Compound A]
Changes(%) of basal values, coronary sinus oxygen tension ([1]; 2.0 mg/kg i.v., 1 min): +15.2% | Changes(%) of basal values, coronary sinus oxygen tension ([1]; 2.0 mg/kg i.v., 5 min): +13.8% | Changes(%) of basal values, coronary sinus oxygen tension ([1]; 2.0 mg/kg i.v., 10 min): +12.5% | Changes(%) of basal values, coronary sinus oxygen tension ([1]; 2.0 mg/kg i.v., 20 min): +12.0% | Changes(%) of basal values, coronary sinus oxygen tension ([1]; 2.0 mg/kg i.v., 30 min): +12.0% | Changes(%) of basal values, coronary sinus oxygen tension ([1]; 2.0 mg/kg i.v., imm.): +11.2% | Changes(%) of basal values, coronary sinus oxygen tension ([1]; 6.0 mg/kg i.v., 1 min): +27.5% | Changes(%) of basal values, coronary sinus oxygen tension ([1]; 6.0 mg/kg i.v., 5 min): +27.0% | Changes(%) of basal values, coronary sinus oxygen tension ([1]; 6.0 mg/kg i.v., 10 min): +30.0% | Changes(%) of basal values, coronary sinus oxygen tension ([1]; 6.0 mg/kg i.v., 20 min): +19.6% | Changes(%) of basal values, coronary sinus oxygen tension ([1]; 6.0 mg/kg i.v., 30 min): +13.5% | Changes(%) of basal values, coronary sinus oxygen tension ([1]; 6.0 mg/kg i.v., imm.): +18.0% | Changes(%) of basal values, coronary sinus oxygen tension ([1]; 20.0 mg/kg i.v., 1 min): +47.2% | Changes(%) of basal values, coronary sinus oxygen tension ([1]; 20.0 mg/kg i.v., 5 min): +39.0% | Changes(%) of basal values, coronary sinus oxygen tension ([1]; 20.0 mg/kg i.v., 10 min): +91.7% | Changes(%) of basal values, coronary sinus oxygen tension ([1]; 20.0 mg/kg i.v., 20 min): +72.5% | Changes(%) of basal values, coronary sinus oxygen tension ([1]; 20.0 mg/kg i.v., 30 min): +56.9% | Changes(%) of basal values, coronary sinus oxygen tension ([1]; 20.0 mg/kg i.v., imm.): +31.6% | Effects on coronary sinus oxygen tension (in words) ([1]; i.v., anesthetized dogs): a significant increase in coronary sinus oxygen tension, effect of which was of long duration | Changes(%) of basal values, coronary sinus out flow (coronary sinus out flow; 2.0 mg/kg i.v., 1 min): +7.6% | Changes(%) of basal values, coronary sinus out flow (coronary sinus out flow; 2.0 mg/kg i.v., 5 min): +5.4% | Changes(%) of basal values, coronary sinus out flow (coronary sinus out flow; 2.0 mg/kg i.v., 10 min): +4.7% | Changes(%) of basal values, coronary sinus out flow (coronary sinus out flow; 2.0 mg/kg i.v., 20 min): +4.0% | Changes(%) of basal values, coronary sinus out flow (coronary sinus out flow; 2.0 mg/kg i.v., 30 min): +3.5% | Changes(%) of basal values, coronary sinus out flow (coronary sinus out flow; 2.0 mg/kg i.v., imm.): +10.9% | Changes(%) of basal values, coronary sinus out flow (coronary sinus out flow; 6.0 mg/kg i.v., 1 min): +16.6% | Changes(%) of basal values, coronary sinus out flow (coronary sinus out flow; 6.0 mg/kg i.v., 5 min): +17.0% | Changes(%) of basal values, coronary sinus out flow (coronary sinus out flow; 6.0 mg/kg i.v., 10 min): +18.0% | Changes(%) of basal values, coronary sinus out flow (coronary sinus out flow; 6.0 mg/kg i.v., 20 min): +8.5% | Changes(%) of basal values, coronary sinus out flow (coronary sinus out flow; 6.0 mg/kg i.v., 30 min): +8.0% | Changes(%) of basal values, coronary sinus out flow (coronary sinus out flow; 6.0 mg/kg i.v., imm.): +12.0% | Changes(%) of basal values, coronary sinus out flow (coronary sinus out flow; 20.0 mg/kg i.v., 1 min): +34.3% | Changes(%) of basal values, coronary sinus out flow (coronary sinus out flow; 20.0 mg/kg i.v., 5 min): +48.3% | Changes(%) of basal values, coronary sinus out flow (coronary sinus out flow; 20.0 mg/kg i.v., 10 min): +47.1% | Changes(%) of basal values, coronary sinus out flow (coronary sinus out flow; 20.0 mg/kg i.v., 20 min): +30.0% | Changes(%) of basal values, coronary sinus out flow (coronary sinus out flow; 20.0 mg/kg i.v., 30 min): +11.8% | Changes(%) of basal values, coronary sinus out flow (coronary sinus out flow; 20.0 mg/kg i.v., imm.): +18.5% | Effects on coronary sinus out flow (in words) (coronary sinus out flow; i.v., anesthetized dogs): a marked increasing effect on coronary sinus out flow, which was proportioned to doses thereof and of long duration | Changes (%) of basal values, arterial mean blood pressure ([2]; 2.0 mg/kg i.v., 1 min): -1.5% | Changes (%) of basal values, arterial mean blood pressure ([2]; 2.0 mg/kg i.v., 5 min): -2.6% | Changes (%) of basal values, arterial mean blood pressure ([2]; 2.0 mg/kg i.v., 10 min): -4.2% | Changes (%) of basal values, arterial mean blood pressure ([2]; 2.0 mg/kg i.v., 20 min): -3.8% | Changes (%) of basal values, arterial mean blood pressure ([2]; 2.0 mg/kg i.v., 30 min): -4.5% | Changes (%) of basal values, arterial mean blood pressure ([2]; 2.0 mg/kg i.v., imm.): -4.0% | Changes (%) of basal values, arterial mean blood pressure ([2]; 6.0 mg/kg i.v., 1 min): -3.4% | Changes (%) of basal values, arterial mean blood pressure ([2]; 6.0 mg/kg i.v., 5 min): -5.2% | Changes (%) of basal values, arterial mean blood pressure ([2]; 6.0 mg/kg i.v., 10 min): -6.0% | Changes (%) of basal values, arterial mean blood pressure ([2]; 6.0 mg/kg i.v., 20 min): -5.2% | Changes (%) of basal values, arterial mean blood pressure ([2]; 6.0 mg/kg i.v., 30 min): -3.0% | Changes (%) of basal values, arterial mean blood pressure ([2]; 6.0 mg/kg i.v., imm.): -4.2% | Changes (%) of basal values, arterial mean blood pressure ([2]; 20.0 mg/kg i.v., 1 min): -16.9% | Changes (%) of basal values, arterial mean blood pressure ([2]; 20.0 mg/kg i.v., 5 min): -16.9% | Changes (%) of basal values, arterial mean blood pressure ([2]; 20.0 mg/kg i.v., 10 min): -16.0% | Changes (%) of basal values, arterial mean blood pressure ([2]; 20.0 mg/kg i.v., 20 min): -17.0% | Changes (%) of basal values, arterial mean blood pressure ([2]; 20.0 mg/kg i.v., 30 min): -14.9% | Changes (%) of basal values, arterial mean blood pressure ([2]; 20.0 mg/kg i.v., imm.): -14.5% | Effects on arterial mean blood pressure (in words) ([2]; i.v., anesthetized dogs): hypotensive effects being proportioned to their doses which were of long duration | Changes(%) of basal values, heart rate (heart rate; 2.0 mg/kg i.v., 1 min): -4.7% | Changes(%) of basal values, heart rate (heart rate; 2.0 mg/kg i.v., 5 min): -0.6% | Changes(%) of basal values, heart rate (heart rate; 2.0 mg/kg i.v., 10 min): -0.4% | Changes(%) of basal values, heart rate (heart rate; 2.0 mg/kg i.v., 20 min): 0% | Changes(%) of basal values, heart rate (heart rate; 2.0 mg/kg i.v., 30 min): 0% | Changes(%) of basal values, heart rate (heart rate; 2.0 mg/kg i.v., imm.): -5.2% | Changes(%) of basal values, heart rate (heart rate; 6.0 mg/kg i.v., 1 min): -3.9% | Changes(%) of basal values, heart rate (heart rate; 6.0 mg/kg i.v., 5 min): -2.3% | Changes(%) of basal values, heart rate (heart rate; 6.0 mg/kg i.v., 10 min): -0.9% | Changes(%) of basal values, heart rate (heart rate; 6.0 mg/kg i.v., 20 min): +1.0% | Changes(%) of basal values, heart rate (heart rate; 6.0 mg/kg i.v., 30 min): +1.0% | Changes(%) of basal values, heart rate (heart rate; 6.0 mg/kg i.v., imm.): -5.0% | Changes(%) of basal values, heart rate (heart rate; 20.0 mg/kg i.v., 1 min): +1.5% | Changes(%) of basal values, heart rate (heart rate; 20.0 mg/kg i.v., 5 min): 0% | Changes(%) of basal values, heart rate (heart rate; 20.0 mg/kg i.v., 10 min): -1.8% | Changes(%) of basal values, heart rate (heart rate; 20.0 mg/kg i.v., 20 min): -6.0% | Changes(%) of basal values, heart rate (heart rate; 20.0 mg/kg i.v., 30 min): -6.7% | Changes(%) of basal values, heart rate (heart rate; 20.0 mg/kg i.v., imm.): -7.0% | Effects on heart rate (in words) (heart rate; i.v., anesthetized dogs): a slight negative chronotropic effect | Changes (%) of basal values, aortic blood flow (aortic blood flow; 2.0 mg/kg i.v., 1 min): +4.3% | Changes (%) of basal values, aortic blood flow (aortic blood flow; 2.0 mg/kg i.v., 5 min): +3.7% | Changes (%) of basal values, aortic blood flow (aortic blood flow; 2.0 mg/kg i.v., 10 min): +2.3% | Changes (%) of basal values, aortic blood flow (aortic blood flow; 2.0 mg/kg i.v., 20 min): +1.0% | Changes (%) of basal values, aortic blood flow (aortic blood flow; 2.0 mg/kg i.v., 30 min): +1.0% | Changes (%) of basal values, aortic blood flow (aortic blood flow; 2.0 mg/kg i.v., imm.): +0.5% | Changes (%) of basal values, aortic blood flow (aortic blood flow; 6.0 mg/kg i.v., 1 min): +5.8% | Changes (%) of basal values, aortic blood flow (aortic blood flow; 6.0 mg/kg i.v., 5 min): +3.7% | Changes (%) of basal values, aortic blood flow (aortic blood flow; 6.0 mg/kg i.v., 10 min): +0.1% | Changes (%) of basal values, aortic blood flow (aortic blood flow; 6.0 mg/kg i.v., 20 min): -0.2% | Changes (%) of basal values, aortic blood flow (aortic blood flow; 6.0 mg/kg i.v., 30 min): +0.2% | Changes (%) of basal values, aortic blood flow (aortic blood flow; 6.0 mg/kg i.v., imm.): +4.3% | Changes (%) of basal values, aortic blood flow (aortic blood flow; 20.0 mg/kg i.v., 1 min): +7.3% | Changes (%) of basal values, aortic blood flow (aortic blood flow; 20.0 mg/kg i.v., 5 min): +10.2% | Changes (%) of basal values, aortic blood flow (aortic blood flow; 20.0 mg/kg i.v., 10 min): +8.0% | Changes (%) of basal values, aortic blood flow (aortic blood flow; 20.0 mg/kg i.v., 20 min): +3.3% | Changes (%) of basal values, aortic blood flow (aortic blood flow; 20.0 mg/kg i.v., 30 min): +1.0% | Changes (%) of basal values, aortic blood flow (aortic blood flow; 20.0 mg/kg i.v., imm.): +6.1% | increased aortic blood flow (aortic blood flow; during the course of observation period, i.v.): 2-8%
